Literature values, collected in US20170245500A1 (priority 2014, published 2017).

Conditions: some conditions, e.g. high temperature or higher soil pH

SMILES: CCOP(=O)(SC(C)CC)N1CCSC1=O (stereo not shown) [fosthiazate]
- time in which the pesticide can be degraded in soil: under ten
